In ChEMBL document CHEMBL3526034 (Drug Metab Dispos, 2013):

Legend:
[1] = Drug excretion in human urine at 20 mg, po; type: ADME, tissue-based; details: read-out: Drug excretion
Cytochrome P450 1A2 = molecular target: T1, Cytochrome P450 1A2 (Homo sapiens, UniProt P05177); experiment: Inhibition of CYP1A2 in human liver microsomes using phenacetin as substrate preincubated for 20 mins with substrate prior to initiation of reaction with NADPH by HPLC analysis; type: ADME
T1 sequence (P05177 whole entry): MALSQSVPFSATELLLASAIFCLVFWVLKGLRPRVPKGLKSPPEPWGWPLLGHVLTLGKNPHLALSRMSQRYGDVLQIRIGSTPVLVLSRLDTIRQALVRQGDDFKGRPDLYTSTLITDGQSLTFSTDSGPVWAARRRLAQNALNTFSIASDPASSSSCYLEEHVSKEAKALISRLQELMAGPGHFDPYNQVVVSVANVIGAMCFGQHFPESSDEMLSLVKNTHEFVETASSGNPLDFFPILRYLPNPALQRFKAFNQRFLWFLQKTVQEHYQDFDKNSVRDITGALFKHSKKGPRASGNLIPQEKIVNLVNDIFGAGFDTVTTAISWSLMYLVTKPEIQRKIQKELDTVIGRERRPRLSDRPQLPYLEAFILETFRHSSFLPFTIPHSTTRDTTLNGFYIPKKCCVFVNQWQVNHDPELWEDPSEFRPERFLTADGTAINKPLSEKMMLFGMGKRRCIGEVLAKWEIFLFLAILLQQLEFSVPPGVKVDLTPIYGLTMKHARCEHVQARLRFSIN

C[C@@H]1CCO[C@H]2Cn3cc(C(=O)NCc4ccc(F)cc4F)c(=O)c(O)c3C(=O)N12 [DOLUTEGRAVIR]
dose excreted [1]: 31.6%
IC50 (Cytochrome P450 1A2): > 100 µM
